# Experimental data reported in patent US10864273B2, “Thiobase compounds for photodynamic therapy” (CASE WESTERN RESERVE UNIVERSITY, priority 2015, dated 2020).
# Like-named read-outs stand apart in the source and are kept apart here.
# Legend:
# [1] = Singlet oxygen quantum yield by phosphorescence at 1270 nm, thiouracil series; format: physicochemical
# Experimental: Solutions of 4tUra, 2,4dtUra, and the singlet oxygen standard (phenalenone; ΦΔ=0.98) were prepared in acetonitrile, each with an absorbance of 0.3 at 355 nm in a 1×1 cm quartz cuvette. The solutions were purged with oxygen for 30 min, followed by the determination of quantum yields from back-toback measurements of the singlet oxygen phosphorescence intensity at 1270 nm. The O2-saturated solutions were excited at 355 nm (Spectra Physics GCR-150-30: 7 ns pulse width) and the phosphorescence at 1270 nm was detected with a NIR sensitive photomultiplier tube (H10330A-45, Hamamatsu).
# The singlet oxygen (^1O2) quantum yields of 4tUra and 2,4dtUra were measured by monitoring the characteristic phosphorescence of ^1O2 at 1270 nm with nanosecond time resolution.
# [2] = Femtosecond to microsecond transient absorption spectroscopy of the thiouracil series (intersystem crossing, triplet yield, triplet decay, triplet-triplet extinction)
# From the text: Briefly, 800 nm, 100 fs fundamental pulses were generated with a Ti-Sapphire regenerative amplifier laser system (Libra-HE, Coherent, Inc.: 4.0 W, 1 kHz). The fundamental beam was used to produce pump wavelengths of 320, 335, and 350 nm via an optical parametric amplifier (TOPAS, Quantronix/Light Conversion). Unwanted wavelengths were removed from the pump beam using a reflective wavelength filter and a Glan-Taylor polarizer. A fraction of the remaining fundamental beam was focused into a continuously moving CaF2 plate (2 mm thick) to generate broadband white light probe pulses (320-700 nm). The intensity of the excitation beam was attenuated to 1 mJ per pulse at the sample position. The polarization of the pump beam was randomized before being focused into the sample to overlap with the white light continuum probe at a 3:1 beam diameter ratio. Pump-probe experiments were collected using a Helios spectrometer (Ultrafast Systems, LLC) and a home-made data acquisition software (LabView, National Instruments, Inc.).
# Solutions of the 2tUra, 4tUra, and 2,4dtUra derivatives were prepared in aqueous phosphate-buffered saline at pH 7.4. […] Solutions were investigated in 2 mm optical path length quartz cells and the irradiated volume was continuously refreshed by stirring with a Teflon-coated magnetic stir bar. Contributions to the transient data from any putative photoproduct formation were prevented by replacing the solution with fresh stock solution every 5 scans, or before 6% sample degradation (as monitored by a decrease in the steady-state absorbance of the lowest-energy absorption band). The UVA excitation wavelength used was varied depending on the absorption spectrum of the specific thiouracil derivative investigated. For 2tUra, an excitation wavelength of 320 nm was used, whereas 2,4dtUra was excited at 335 and 350 nm, and 4tUra was excited at all three of these UVA wavelengths.
# Decay of the triplet state of 4tUra and 2,4dtUra to the ground state was monitored using the same excitation and detection setups but probing with an electronically triggered broadband white light source (Eos, Ultrafast Systems, LLC) that has been conveniently integrated into the Helios spectrometer. This probe source has a spectral window from B375 to 800 nm, a time resolution of about 400 ps, and a temporal window of up to 120 ms. […] Data were collected with the solutions under a constant nitrogen flow, and exciting at 350 nm with 3 mJ per pulse for 10 min, corresponding to less than 5% degradation.
# For each data set, between 50 and 100 traces were selected across the entire range of probe wavelengths and globally analyzed in Igor Pro 6.32A (WaveMetrics, Inc.). […] 83 The uncertainties reported for the triplet population lifetimes are twice the standard deviation from the average fitting of at least three independent datasets (i.e., recorded on three different days). Triplet-triplet absorption spectra were extracted from the global fitting analysis.
# [3] = cited from earlier work
# [4] = system: adenosine 5′-monophosphate (5′-AMP); assay: Photoreactivity with adenosine 5′-monophosphate upon 365 nm irradiation in N2-saturated buffer; conditions: with 5′-AMP, 1:5 molar ratio (24 and 120 mM); 365 nm irradiation; N2-saturated aqueous buffer pH 7.4
# Experimental: Aqueous phosphate-buffered saline solutions, pH 7.4, containing either 4tUra or 2,4dtUra were prepared with and without 5′-AMP and loaded into 1×1 cm septum-top quartz cuvettes. The concentrations of the thiouracil derivatives and 5′-AMP were […], respectively. These concentrations were chosen in order to favor the bimolecular photoreaction between the thiouracil derivative and 50-AMP, while simultaneously maintaining the absorbance of the solutions within the linear dynamic range limit of the UV-visible spectrophotometer used. All solutions were purged with ultrapure nitrogen for 30 min and kept under constant nitrogen flow throughout the irradiation period. An optical parametric amplifier (TOPAS, Quantronix/Light Conversion) pumped by our Libra laser system (described above) was used for monochromatic (±1 nm) irradiation of the samples. […] Absorbance changes in the thiouracil solutions, with and without 5′-AMP, were monitored periodically using UV-visible spectroscopy (Cary 100 Bio) during irradiation at 365 nm for up to 90 min and while stored in the dark for up to three and a half days.
# In order to scrutinize the light-induced reactivity of these sensitizers toward biomolecules, aqueous phosphate-buffered saline solutions of either 4tUra or 2,4dtUra were prepared in the presence of the RNA monomer adenosine 5′-monophosphate (5′-AMP) at a 1:5 molar ratio. […] The experimental conditions were chosen in order to facilitate the extraction of relative photoreaction rates from the changes in the steady-state absorption spectra with irradiation time. […]
# [5] = O2-saturated acetonitrile solution; previously measured / standard value; cited from earlier work
# [6] = Femtosecond broadband transient absorption spectroscopy of the thiothymine series (intersystem crossing, triplet yield); format: physicochemical
# Experimental: Femtosecond transient absorption spectroscopy was performed using a Ti— Sapphire regenerative amplifier laser system (Libra-HE, Coherent, Inc.; 800 nm, 100 fs, 4.0 W at 1 kHz). 2.6 W of the 800 nm beam were used to pump an optical parametric amplifier (TOPAS, Quantronix/Light Conversion) to generate the excitation beam at selected wavelengths of 320, 335, and 360 nm. Contributions to the excitation beam from other wavelengths and polarizations were removed by a reflective wavelength filter (λ-filter) and a Glan-Taylor polarizer, respectively, and the polarization was randomized using a depolarizing plate in order to prevent rotational effects from contributing to the dynamics, as described in details elsewhere.
# A Helios spectrometer (Ultrafast Systems, LLC.) was used for pump-probe measurements. A fraction of the fundamental (800 nm) beam from the Libra-HE was used to generate white light continuum (WLC). The Helios spectrometer uses an optical delay line with a maximum delay of ˜3 ns for the 800 nm beam, which was used to pump a continuously-moving 2 mm CaF2 plate for generation of the WLC broadband probe pulse covering the spectral range from ˜320-700 nm. The probe light was then passed through a 730 nm low-pass dichroic optical filter, so as to block residual fundamental beam and to avoid saturating the complementary metal-oxide-semiconductor (CMOS) detectors. The probe pulse was then split into two beams, both of which were recollimated and focused into the optical fibers leading to their respective CMOS detectors. In this setup, one of the beams serves as reference, while the other is used to probe the sample of interest. A synchronized chopper wheel was used to block every other pump pulse, such that the difference in absorption between two consecutive measurements gives the transient spectrum. The excitation beam was attenuated to 1 μJ/pulse at the sample using a neutral density optical filter before entering the spectrometer. The excitation pulse was focused to a beam diameter three times larger than that of the probe beam at the sample position. Detection time windows of 20 and 200 ps were used in this work.
# All solutions were prepared using pH 7.4 aqueous phosphate buffer, with a total phosphate concentration of 16 mM. The solution was continuously stirred in a 2 mm optical path length quartz cell (Starna Cells, Inc.) using a Teflon-coated magnetic stirring bar so as to bring fresh sample to the pump-probe region for each measurement. The solution in the cuvette was replaced with a fresh sample, from the same stock solution, every 5-7 scans, so that all scans had no more than 5% decrease in absorbance at the lowest-energy absorption-band maximum as determined by steady-state absorption spectroscopy.
# All broadband transient absorption data were corrected for group velocity dispersion (GVD) of the WLC using a home-made LabView program (National Instruments, Inc.) as previously described. 3 Analysis of transient absorption kinetics was performed in Igor Pro 6.32A (WaveMetrics, Inc.) using the target analysis method, as described previously, and a sequential kinetic model convoluted with an instrument response function of ˜200 fs (FWHM). The instrument response was determined from the coherence signal of neat methanol generated at the sample cell. Global fitting analysis was performed using 15 to 30 representative kinetic traces covering the full range of probe wavelengths. At least three independent datasets (i.e., recorded on three different days) were used in the analysis and all uncertainties are reported as twice the standard deviation of the average lifetime. Decay associated spectra shown in FIG. 7A were extracted from the global fitting analysis of the transient decay traces taken every third probe wavelength across the entire WLC range.
# [7] = pH 7.4 phosphate buffer solution, cited from earlier work; for ΦT triplet quantum yield: previously reported values
# [8] = Steady-state absorption spectroscopy, thymine series; format: physicochemical; conditions: phosphate buffer solution at pH 7.4
# From the text: 2-thiothymine (2tThy, 98% purity) was obtained from AK Scientific, 4-thiothymidine (4tThd, 99% purity) was obtained from Carbosynth Ltd., and 2-thiothymidine (2tThd) and 2,4-dithiothymine (2,4dtThy) were obtained from Sigma Aldrich. All compounds were used as received. The purity of these compounds was ensured by using fluorescence spectroscopy and by comparison with the published absorption maxima and their corresponding extinction coefficients. Phosphate buffer solutions were freshly prepared using 0.12 g of sodium dihydrogen phosphate and 0.089 g of disodium hydrogen phosphate dissolved in 100 mL of ultrapure water and adjusted to pH 7.4 using a 2 M NaOH solution. Steady-state absorption spectra were measured using a Cary 100 Bio spectrometer. All absorption spectra were corrected for the solvent background by subtraction of the absorption of the solvent.
# Specifically, sulfur substitution of the C2 carbonyl in thymine results in about a 10 nm redshift in the absorption maximum, whereas substitution at the C4 position results in a redshift of about 70 nm. Remarkably, double-substitution results in about a 100 nm redshift of the lowest-energy absorption band of thymidine (ΔE=9905 cm^−1), without an appreciable change in the magnitude of the extinction coefficient at the corresponding wavelengths (1×10^4 M^−1 cm^−1). Replacement of an oxygen atom by a sulfur atom in a carbonyl bond is expected to shift the absorption spectrum to the red because the thiocarbonyl is weaker than the carbonyl bond and the excited electronic states in thiocarbonyl compounds are typically found at lower energies. However, the difference in bond strengths between a carbonyl and thiocarbonyl bond cannot solely explain the large spectral shift observed between 2tThy/2tThd and 4tThd. Furthermore, the redshift in the absorption spectrum of 2,4dtThy cannot simply be expressed as a linear combination of the absorption spectra of the 2tThy/2tThd and 4tThd derivatives. […] Glycosylation of 2tThy, generating 2tThd, results in a 2 nm redshift in the absorption maximum and about 2-fold increase in the molar absorptivity coefficients (FIG. 1B). The same effect has been previously documented in the natural bases and in other thiobases. Therefore, glycosylation of 2,4dtThy to form 2,4-dithiothymidine is expected to redshift the absorption spectrum slightly and to increase the molar absorptivity coefficients.
# [9] = aqueous phosphate-buffered saline solution, pH 7.4
smiles,measurement,setting,value
"O=c1[nH]ccc(=S)[nH]1 [4tUra, 4-thiouracil]",ΦΔ singlet oxygen quantum yield,"[1]; O2-saturated acetonitrile, 355 nm excitation, phenalenone standard",0.49±0.02
same,1O2 yield relative to uracil,[1]; excited to lowest-energy absorption band,3.3 fold
same,1O2 yield,[1]; following UVA excitation,ca. 50%
same,τISC intersystem crossing lifetime,[2]; [9],240 ± 20 fs
same,κT triplet-state decay rate,"[2]; aqueous phosphate-buffered saline solution, pH 7.4, 24 mM solutions, nitrogen-purged, 350 nm excitation",1.7 ± 0.3 10^6 s^−1
same,triplet-triplet extinction coefficient,"[2]; at 600 nm, singlet depletion method",3000 ± 600 M⁻¹ cm⁻¹
same,pKa,[3],8.0
same,photoreaction rate,[4],(0.39±0.04)×10^−9 M s^−1
"Cc1c[nH]c(=S)[nH]c1=O [2tThy, 2-thiothymine]",ΦΔ singlet oxygen quantum yield,[5],0.36 ± 0.02
same,intersystem crossing rate increase relative to Thd,[6],1.2 fold
same,ΦT triplet quantum yield,[7],0.9 ± 0.1
"O=c1cc[nH]c(=S)[nH]1 [2tUra, 2-thiouracil]",τISC intersystem crossing lifetime,[2]; [9],360 ± 30 fs
same,pKa,[3],7.74
"Cc1cn([C@H]2C[C@H](O)[C@@H](CO)O2)c(=O)[nH]c1=O [Thd, thymidine]",ΦΔ singlet oxygen quantum yield,[5],0.07 ± 0.01
same,ΦT triplet quantum yield,[7],0.014 ± 0.001
same,τISC intersystem crossing lifetime,[7]; recently reported value for thymidine,760 fs
same,maximum of lowest-energy absorption band,[8],~267 nm
same,ε at maximum of lowest-energy absorption band,[8],≈ 9.9×10^3 M^−1 cm^−1
"Cc1cn([C@H]2C[C@H](O)[C@@H](CO)O2)c(=S)[nH]c1=O [2tThd, 2-thiothymidine]",τISC intersystem crossing lifetime,"[6]; pH 7.4 phosphate buffer solution, probe 600 nm",410 ± 60 fs
same,ΦT triplet quantum yield,[7],0.9 ± 0.1
